Results published in US20080153792A1, “Drug Identification and Treatment Method” (priority 2006, published 2008).

Assays:
[1] = test system: CD1 male mice, carrageenan-λ induced pleurisy; assay: carrageenan-λ induced lung (pleural cavity) inflammation in mice; assay type: in vivo, mouse; conditions: for number of neutrophils relative to untreated carrageenan-λ control (100%): 4 h after carrageenan
[2] = test system: BALB/c mice, OVA sensitized and challenged; assay: ovalbumin (OVA) sensitized mouse model of asthma; assay type: in vivo; conditions: for IL-13: s.c. once daily, dexamethasone 5 mg/kg, compound 1 mg/mouse
Experimental: BALB/c mice were sensitized by intraperitoneal injection with OVA (in alum adjuvant) on days 1, and 12. Airways were challenged with OVA on days 28 and 30 by delivery of OVA to the lung, or with saline. […] The remaining animals were divided into 6 groups (6 mice per group). Groups of the mice were treated once daily by subcutaneous injection as follows. Group 1 vehicle control (0.1% carboxymethyl cellulose, 0.9% saline, 2% tween 80, 0.05% phenol). Group 2 dexamethazone (5 mg/kg). Group 3 3α,16α,17α-trihydroxyandrostane (1 mg/mouse). Three animals in groups 1-3 were sacrificed on day 35 at 1 hr after final treatment and the remaining 3 animals in groups 1-3 were sacrificed on day 38.

[3] = metabolic stability in liver microsomes, species not stated; assay type: in vitro ADME; conditions: compared with androst-5-ene-3β,17β-diol reference compound
Experimental: (§1) The protocol was performed as follows. […] (2) Set up samples as follows. […] (4) The internal standard/acetonitrile solution.

[4] = test system: NF-κB in spleen cells of ICR mice; assay: activated NF-κB in spleen cell nuclei after LPS, Example 8; assay type: in vivo, mouse; conditions: about 40 mg/kg i.p. 24 h before and 1 h after LPS; spleens 1.5 hours after LPS
Experimental: The capacity of selected compounds to treat LPS induced shock/inflammation in mice was examined by a protocol similar to the protocol described above. Five groups of three ICR mice weighing about 30 g were each treated by intraperitoneal injection with 120 μL vehicle (30% sulfobutylether-cyclodextrin in water), androst-5-ene-3α,7β,16α,17β-tetrol in vehicle, androst-5-ene-3β,4β,16α,17β-tetrol in vehicle or 4β-acetoxyandrost-5-ene-3β,16α,17β-triol in vehicle. All drug and vehicle formulations were solutions, not suspensions. The sulfobutylether-cyclodextrin was obtained commercially (Captisol™, www.cyclexinc.com). There were two vehicle control groups one group received vehicle alone and the other received vehicle plus LPS. […] Drug was administered at about 40 mg/kg (1.2 mg drug/animal for each administration of the drugs). Spleens were harvested from the animals at 1.5 hours after injection of LPS and spleen cells were lysed and assayed for activated NF-κB by isolating nuclei from spleen cells and measuring NF-κB from the lysed nuclei. […] The level of activated NF-κB in spleen cells from the animals that were treated with vehicle and no LPS, was essentially the same as the activated NF-κB in spleen cells from drug treated animals.

[5] = test system: human peripheral blood mononuclear cells (PBMC); assay: human mixed lymphocyte reaction (MLR); assay type: cell-based; conditions: 6 days
Experimental: Human mixed lymphocyte reaction (MLR). The capacity of 3β,16α-dihydroxy-17-oxoandrostane, 3β,17β-dihydroxy-16-oxoandrostane, 17α-ethynylandrost-5-ene-3β,7β,17β-triol, and 17β-aminoandrost-5-ene-3β-ol to affect antigen specific stimulation in which human T lymphocytes respond to a specific foreign antigen (major histocompatibility complex).
Blood samples were obtained from 3 (2 males, […]) fasting, healthy human volunteers of 23-31 years old. […] The subjects were bled between […] to limit possible fluctuations in the circulating levels of hormones or cytokines that could have influenced the in vitro responses of their lymphocytes. Peripheral blood mononuclear cells (PBMC) were isolated by centrifugation on Ficoll-Hypaque (density 1.077, Biochrom AG, Berlin, Germany) gradients and resuspended in culture medium (RPMI 1640 supplemented with 2 mM L-glutamine, penicillin (100 U/mL) and streptomycin ([…]) (Invitrogen s.rl., Milan, Italy). Autologous (responder) inactivated plasma was used at 10%. Five hundred thousand responder PBMC (PBMCr) and 500,000 allogeneic irradiated (30 Gy) stimulator PBMC (PBMCs) were mixed at a ratio of 1:1 in 200 μL medium and cultured for 6 days in flat bottom 96 well plates (Nunc, Roskilde, Denmark) at a concentration of 300 nM or 30 nM for each of the 4 compounds. The compounds were dissolved in ethanol and then diluted to the desired concentration with culture medium leading to a final solution containing 0.01% of ethanol. This vehicle was used as control. Controls also included PBMCr and PBMCs cultured separately. During the last 8 hours of the culture period the PBMC were pulsed with 1 μCi/well [^3H] thymidine (Amersham, Milan, Italy). The cells were then harvested and radioactivity incorporation measured with a beta cell counter. The mean cpm of quadruplicate wells was calculated. Proliferation of T cells was expressed as a stimulation index: SI=cpm (PMBCs xPBMCr)/cpm (PBMCr)+cpm (PBMCs). Statistical analysis was performed using the Student's t test. The cpm obtained from quadruplicate of each test compound were compared to proliferative responses obtained in control PBMCr and PBMCs cultured in the presence of the vehicle. Differences were considered significant at p<0.05.

Balb/c mice, ear burn = assay: thermal injury model using mouse ear tissue; assay type: in vivo; conditions: injection in propylene glycol after burn
Experimental: A thermal injury model using mouse ear tissue was used to characterize compounds for their capacity to treat inflammation associated with thermal trauma. […] Groups of Balb/c mice, approximately nine weeks old were given an identifying mark and then divided into control and treated subgroups. The thickness of the ear to be immersed in hot water was recorded, and then the entire ear of the anesthetized mouse was dipped into 52° C. water for 24 seconds. Each mouse was returned to its cage after an injection of either the propylene glycol vehicle (control) or 100 mg of compound in propylene glycol. Ear swelling changes were monitored on individual mice at pre-burn, and at various times after thermal injury. Ear swelling changes were monitored on individual mice at pre-injury and at 1, 3, 6, 9, 12, 18, 24 and 48 hours after thermal injury. Animals were treated with 100 mg of dehydroepiandrosterone (DHEA) dissolved in propylene glycol.

female SJL/J mice, EAE = assay: experimental allergic encephalomyelitis (EAE), PLP 139-151, Example 6; assay type: in vivo, mouse; conditions: 5 mg/kg daily by oral gavage, through day 26
Description: Treatment of autoimmune neurodegeneration. Three compounds, 17β-aminoandrost-5-ene-3β-ol, 17β-dimethylaminoandrost-5-ene-3β-ol and 17β-methylaminoandrost-5-ene-3β-ol were characterized for their capacity to ameliorate experimental allergic encephalomyelitis (EAE) in mice. This demyelinating condition is extensively used as a model for multiple sclerosis in humans and for testing of new therapies for treating multiple sclerosis, e.g., B. F. Bebo Jr. et al., J. Neurosci. Res. 52:420-426 1998; R. R. Voskuhl et al., Neuroscientist, 7:258-270 2001; H. Offner et al., J. Neuroimmunol., 130:128-139 2002.
In this protocol, the compounds were administered to female SJL/J mice by oral gavage at the onset of disease symptoms. An antigen was used to initiate the EAE condition in the mice. […] Immunization with this peptide antigen initiates an autoimmune Th1 mediated demyelinating disease of the central nervous system. The antigen was prepared by solid phase synthesis and purified by high-performance liquid chromatography. […] The immunization protocol was subcutaneous injection over four sites on the hind flank on day 0. After immunization. the mice were assessed daily for clinical signs of EAE using the following scale: 0=no clinical signs or symptoms; 1=limp tail; 2=mild hind limb weakness and limp tail; 3=moderate hind limb weakness and limp tail or mild ataxia; 4=severe hind limb weakness and mild forearm weakness with moderate ataxia; 5=paraplegia with no more than moderate forelimb weakness; 6=paraplegia with severe forelimb weakness or severe ataxia or moribund condition.
Mice in the vehicle control group began to show observable symptoms of EAE at about 10-11 days after immunization with the PLP antigen, which is typical for the EAE disease model. The animals were dosed daily with 17β-aminoandrost-5-ene-3β-ol, 17β-dimethylaminoandrost-5-ene-3β-ol or 17β-methylaminoandrost-5-ene-3β-ol by oral gavage beginning at day 1, which was 1 day after immunization.

[6] = metabolic stability in liver microsomes: human
Experimental: as §1

[7] = metabolic stability in liver microsomes: mouse; conditions: 10 min
Experimental: as §1

NF-κB = assay: NF-κB-bla THP-1 β-lactamase reporter assay; assay type: cell-based, human; conditions: Homo sapiens, THP-1, read-out: IC50 for inhibition of NF-κB activation, after LPS stimulation; 50% of the maximum inhibition the compound can induce; averages of 2-4 assays
MG-63 cells = assay: reversal of glucocorticoid effects in MG-63 osteosarcoma cells; assay type: cell-based, human; conditions: 10 nM compound

C[C@]12CC[C@H]3[C@@H](CCC4C[C@H](O)CC[C@@]43C)[C@@H]1C[C@@H](O)[C@H]2O (stereo partly drawn) [3α,16α,17α-trihydroxyandrostane]
number of neutrophils relative to untreated carrageenan-λ control (100%) ([1]; 0.001 mg s.c. 24 h and 1 h before carrageenan-λ): 103% | number of neutrophils relative to untreated carrageenan-λ control (100%) ([1]; 0.01 mg s.c. 24 h and 1 h before carrageenan-λ): 45% | number of neutrophils in the pleura ([1]; 0.1 mg and 0.01 mg doses s.c.): significant reduction | number of neutrophils relative to untreated carrageenan-λ control (100%) ([1]; 0.1 mg s.c. 24 h and 1 h before carrageenan-λ): 30% | IL-13 ([2]; day 35): 195 pg/mL | IL-5 in lung tissue ([2]; day 38): 90 pg/mL | IL-13 ([2]; day 38): 210 pg/mL | metabolism by microsomes [3]: metabolized by microsomes at a rate similar to the androst-5-ene-3β,17β-diol reference compound

C[C@]12CC[C@H]3[C@@H](CC=C4[C@@H](O)[C@@H](O)CC[C@@]43C)[C@@H]1C[C@@H](O)[C@@H]2O [3β,4β,16α,17β-tetrahydroxyandrost-5-ene]
decrease of NF-κB activation compared to LPS+vehicle control group [4]: about 50%

C[C@]12CC[C@H]3[C@@H](CCC4C[C@@H](O)CC[C@@]43C)[C@@H]1CC(=O)[C@@H]2O (stereo partly drawn) [3β,17β-dihydroxy-16-oxoandrostane]
immune suppression in the MLR ([5]; either 300 nM or 30 nM, p>0.05): not appreciably immune suppressive

CC(=O)O[C@@H]1C2=CC[C@H]3[C@@H]4C[C@@H](O)[C@H](O)[C@@]4(C)CC[C@@H]3[C@@]2(C)CC[C@@H]1O [4β-acetoxy-3β,16α,17β-trihydroxyandrost-5-ene]
decrease of NF-κB activation compared to LPS+vehicle control group [4]: about 50%

C[C@]12CC[C@H](O)CC1=CC[C@@H]1[C@@H]2CC[C@]2(C)C(=O)[C@H](Br)C[C@@H]12 [16α-bromodehydroepiandrosterone]
protection against progressive ischemia after thermal injury to the ear (Balb/c mice, ear burn): protected treated animals against much of the ischemic consequences

C[C@]12CC[C@H](O)CC1=CC[C@@H]1[C@@H]2CC[C@]2(C)C(=O)[C@H](Cl)C[C@@H]12 [16α-chlorodehydroepiandrosterone]
protection against progressive ischemia after thermal injury to the ear (Balb/c mice, ear burn): only slightly protective

C[C@]12CC[C@H](O)CC1=CC[C@@H]1[C@@H]2CC[C@]2(C)C(=O)[C@H](O)C[C@@H]12 [16α-hydroxydehydroepiandrosterone]
protection against progressive ischemia after thermal injury to the ear (Balb/c mice, ear burn): less protective

C[C@]12CC[C@H]3[C@@H](CC=C4C[C@@H](O)CC[C@@]43C)[C@@H]1CC[C@@H]2N [17β-aminoandrost-5-ene-3β-ol]
activity on clinical severity of EAE symptoms (female SJL/J mice, EAE): active | anti-inflammation activity versus vehicle controls ([1]; 40 mg/kg by oral gavage, about 0.5 mg/mouse): statistically significant anti-inflammation activity | immune suppression in the MLR ([5]; 300 nM, p<0.05): moderately immune suppressive

CN(C)[C@H]1CC[C@H]2[C@@H]3CC=C4C[C@@H](O)CC[C@]4(C)[C@H]3CC[C@]12C [17β-dimethylaminoandrost-5-ene-3β-ol]
activity on clinical severity of EAE symptoms (female SJL/J mice, EAE): active

CN[C@H]1CC[C@H]2[C@@H]3CC=C4C[C@@H](O)CC[C@]4(C)[C@H]3CC[C@]12C [17β-methylaminoandrost-5-ene-3β-ol]
activity on clinical severity of EAE symptoms (female SJL/J mice, EAE): active

C[C@]12CC[C@H]3[C@@H]([C@H](O)C=C4C[C@@H](O)CC[C@@]43C)[C@@H]1C[C@@H](O)[C@@H]2O [androst-5-ene-3β,7α,16α,17β-tetrol]
parent remaining human microsomes ([6]; 10 min): 100% (10 min) | parent remaining mouse microsomes [7]: 100% (10 min) | IC50 (NF-κB): > 10 µM | osteoprotegerin levels in the presence of 30 nM dexamethasone (MG-63 cells): near normal osteoprotegerin levels

C[C@]12CC[C@H]3[C@@H](CC=C4C[C@@H](O)CC[C@@]43C)[C@@H]1C[C@@H](O)[C@@H]2O [androst-5-ene-3β,16α,17β-triol]
metabolism by microsomes [3]: metabolized by microsomes at a rate similar to the androst-5-ene-3β,17β-diol reference compound

C[C@]12CC[C@H]3[C@@H](CC=C4C[C@@H](O)CC[C@@]43C)[C@@H]1CC[C@@H]2O [androst-5-ene-3β,17β-diol]
protection against progressive ischemia after thermal injury to the ear (Balb/c mice, ear burn): protected treated animals against much of the ischemic consequences | parent remaining human microsomes ([6]; 10 min): 39% (10 min) | parent remaining human microsomes ([6]; 90 min): 30% (90 min) | parent remaining mouse microsomes [7]: 25% (10 min)
